From the NIST ThermoML archive (doi:10.1021/je700210n)

Assay: xn = mol fraction of the nth substance listed
Conditions: Liquid, determined from the liquid sample's weight and the volume of sample.

CC [ethane] + N#N
Conditions	mass density [kg/m3]
149.97 K, x2 = 0.0702	558.2
169.87 K, x2 = 0.2041	544.8
169.91 K, x2 = 0.114	537.5
170 K, x2 = 0.036	525
209.93 K, x2 = 0.0236	479.7
210.04 K, x2 = 0.3352	482.6
249.66 K, x2 = 0.0761	416.5
249.98 K, x2 = 0.0518	414.7
250.03 K, x2 = 0.1483	407.9
269.91 K, x2 = 0.1969	350.5
269.94 K, x2 = 0.0305	378.2
269.97 K, x2 = 0.3581	284.6
270 K, x2 = 0.2503	332.5
270.01 K, x2 = 0.06	376.3

N#N [nitrogen] + C
Conditions	mass density [kg/m3]
129.98 K, x1 = 0.2952	648.5
129.99 K, x1 = 0.4716	618.7
149.93 K, x1 = 0.5938	413.6
149.96 K, x1 = 0.4151	527.4
149.97 K, x1 = 0.1389	602.8
149.97 K, x1 = 0.3339	555.8
150 K, x1 = 0.5608	436
150.01 K, x1 = 0.504	474.9
159.36 K, x1 = 0.3238	492
159.96 K, x1 = 0.4275	427.8
159.98 K, x1 = 0.0224	577
159.99 K, x1 = 0.2659	511
160 K, x1 = 0.4156	432.5
169.98 K, x1 = 0.2384	436.4
169.99 K, x1 = 0.263	420.1
170.01 K, x1 = 0.2279	442.9
170.01 K, x1 = 0.3013	383.6
179.98 K, x1 = 0.1281	390.8
179.98 K, x1 = 0.1898	319
